Results taken from patent US5254571A, “Chemical compounds” (Smith Kline & French Laboratories Ltd., priority 1988, dated 1993).
pIC50: −log10 of the molar value.

Key:
[1] = tested on: U46619-induced bronchoconstriction; experiment: Bronchodilatation in vivo: inhibition of U46619-induced bronchoconstriction in anaesthetised guinea-pigs; design: species or system guinea-pig (male, Dunkin Hartley); conditions: Cavia porcellus, iv, U46619 infused i.v. 2.5 nmol/min, compound i.v. bolus, peak inhibition, read-out: BD50 (dose required to reduce the U46619-induced bronchoconstriction by 50%)
Procedure: Male guinea-pigs of the Dunkin Hartley strain (500-600 g) were anaesthetised with Sagatal (pentobarbital sodium) (60 mg/kg). Airway resistance was measured using a modification of the classical Konzett-Rossler technique (J. Pharm. Methods, 13, 309-315, 1985). U46619 (9,11-methanoepoxy-pGH2) was infused i.v. at a rate of 2.5 nmol/min, this produced a steady state of bronchoconstriction (approximately 120% increase from basal airway resistance). The compound under test was administered by i.v. bolus injection, and the subsequent peak inhibition of bronchoconstriction recorded.
The dose of compound required to reduce the U46619-induced bronchoconstriction by 50% is given as the BD50.

[2] = tested on: hindquarter blood flow / vascular resistance; experiment: Vasodilatation in vivo: hindquarter blood flow in anaesthetised rats; design: species or system rat (male Wistar); conditions: Rattus norvegicus, iv, bolus i.v., from dose response curves, read-out: EDHQ50 (dose required to produce a 50% increase in hindquarter blood flow)
Procedure: Male Wistar rats (300 g) were anaesthetised with a sodium 5-ethyl-5-(1-methylpropyl)-2-thiobarbiturate/sodium pentobarbitone mixture i.p. (62.5 and 22.5 mg/kg respectively). The trachea was cannulated and the rats breathed spontaneously air enriched with O2 (5 ml/min). Blood pressure was recorded from a carotid artery and a jugular vein was cannulated for the administration of compounds. The temperature of the animal was maintained at 37° C. by the use of an electric blanket. […] The perfusion circuit was primed with 5% bovine serum albumin dissolved in 0.9% sodium chloride solution, pH adjusted to 7.4. Initially the pump rate was set between 10 and 15 ml/min to match the hind quarter perfusion pressure to that of the systemic circulation. Once set, the pressure remained unaltered for the rest of the experiment. A change in the speed of the pump (equivalent to hindquarter blood flow) was used to assess the changes in hindquarter vascular resistance.
All compounds were administered as a bolus i.v. and from the dose response curves the dose required to produce a 50% increase in hindquarter blood flow (EDHQ50) was determined in μmoles/kg.

[3] = molecular target: calmodulin insensitive cyclic GMP phosphodiesterase (Homo sapiens, UniProt O76074); experiment: Phosphodiesterase activity: inhibition of calmodulin insensitive cyclic GMP phosphodiesterase; type: biochemical; conditions: procedure described in European Patent Application No. 293063; range given for the listed Examples together; read-out: IC50 (concentration of inhibitor required for 50% inhibition of enzyme activity)
Procedure: The activity of the compounds of the present invention as inhibitors of a calmodulin insensitive cyclic GMP phosphodiesterase was measured using the procedure described in European Patent Application No. 293063. […] The compounds of the present invention have the advantage that they are selective in not inhibiting cyclic AMP phosphodiesterase (type III).

[4] = tested on: ovalbumen-induced bronchoconstrictor response; experiment: Anti-allergic activity: ovalbumen-induced bronchoconstriction in sensitised guinea-pigs; type: in vivo, guinea-pig (male, Duncan Hartley); conditions: 11 μmol/kg i.v. bolus; 30 minutes following drug administration; ovalbumen 1 mg/kg i.v. challenge; n = 6
Procedure: Male Duncan Hartley guinea-pigs (250-300 g) were sensitised to ovalbumen by i.p. injection of 2 ml of 50 mg.ml^-1 i.p. and 0.2 ml s.c. Three weeks later they were anaesthetised with 60 mg.kg^-1 sodium pentabarbitone. The trachea was cannulated and the animal respired at a rate of 40 breaths per minute and at an initial tracheal inflation pressure of 16 mmHg. Tracheal inflation pressure was measured by a transducer connected to a side arm of the respiration circuit The carotid artery was cannulated for the measurement of blood pressure and the signal was used to trigger an instantaneous rate meter. A jugular vein was cannulated for the administration of drug and allergen. After surgery the animals were allowed to stabilise and the drug was administered i.v. as a bolus. Following this, ovalbumen 1 mg.kg^-1 was injected i.v. as the antigen challenge either 2, 15 or 30 minutes following drug treatment and the peak bronchoconstrictor response recorded. For the control group ovalbumen only was given. One ovalbumen challenge per guinea-pig was used and n = 6 for each time point. The percentage increase in tracheal inflation pressure was calculated.

SMILES	ED50 [1]	ED (50% increase) [2]	pIC50 [3]	inhibition of the control bronchoconstrictor response [4]
CCCOc1ccccc1-c1ccc(C#N)c(=O)[nH]1 [Example 1, 3-Cyano-6-(2-propoxyphenyl)-2(1H)-pyridinone]	10 µmol/kg	11.5 µmol/kg	4.52 to 5.77	
CCCOc1ccccc1-c1ccc(C(N)=O)c(=O)[nH]1 [Example 2, 6-(2-Propoxyphenyl)-1,2-dihydro-2-oxopyridine-3-carboxamide]	1.1 µmol/kg	14 µmol/kg	4.52 to 5.77	44%
CCCOc1ccccc1-c1ccc(C(=O)O)c(=O)[nH]1 [Example 3, 6-(2-Propoxyphenyl)-1,2-dihydro-2-oxopyridine-3-carboxylic acid]	10.6 µmol/kg			
CCCOc1ccccc1-c1ccc(C(=O)OC)c(=O)[nH]1 [Example 4, Methyl 6-(2-propoxyphenyl)-1,2-dihydro-2-oxopyridine-3-carboxylate]			4.52 to 5.77	
CCCOc1ccccc1-c1cccc(=O)[nH]1 [Example 6, 6-(2-Propoxyphenyl)-2(1H)-pyridinone]			4.52 to 5.77	
CCCOc1ccccc1-c1ccc([N+](=O)[O-])c(=O)[nH]1 [Example 7, 3-Nitro-6-(2-propoxyphenyl)-2(1H)-pyridinone]	7.7 µmol/kg		4.52 to 5.77	
CCOc1ccccc1-c1ccc(C#N)c(=O)[nH]1 [Example 9, 3-Cyano-6-(2-ethoxyphenyl)-2(1H)-pyridinone]			4.52 to 5.77	
CCCOc1ccccc1-c1cc(C)c(C#N)c(=O)[nH]1 [Example 11, 3-Cyano-4-methyl-6-(2-propoxyphenyl)-2(1H)-pyridinone]	2.3 µmol/kg		4.52 to 5.77	
CCCOc1ccccc1-c1[nH]c(=O)c(C#N)cc1C [Example 12, 3-Cyano-5-methyl-6-(2-propoxyphenyl)-2(1H)-pyridinone]			4.52 to 5.77	
CCCOc1ccccc1-c1ccc(C#N)c(=S)[nH]1 [Example 14, 3-Cyano-6-(2-propoxyphenyl)-2(1H)-pyridinethione]			4.52 to 5.77	
